For 11 compounds, TGI results are on record in PubChem BioAssay (NCI).

The structures appear in SMILES notation.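 Interpolation was linear, between the two tested concentrations surrounding the appropriate level; five concentrations were tested over 48 hours in 96-well plates. TGI marks complete inhibition of growth.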

Test systems include LOX IMVI melanoma; NCI-H226 lung; HCC-2998 colon; HT29 colon; UACC-257 melanoma; RXF 393 renal; BT-549 breast; COLO 205 colon; SR leukemia; KM12 colon; OVCAR-3 ovarian.
Common to all, as to assay: DTP human tumour cell line panel, 48 h

What is called TGI is the concentration giving total growth inhibition. A higher TGI goes with less potent growth arrest.

For the compound `CC(=O)OCC1=C(C)C[C@H]([C@@H](COC(C)=O)C2CCC3C4C[C@H]5O[C@]56CC=CC(=O)[C@]6(C)C4CC[C@@]32C)OC1=O` (stereo partly specified), the TGI in the experiment on LOX IMVI melanoma amounted to 0.552 µM; in the experiment with NCI-H226 lung, 1.74 µM; with HCC-2998 colon, 1.2 µM; with HT29 colon it was 0.508 µM; with UACC-257 melanoma, 2.99 µM; in the experiment on RXF 393 renal, 1.12 µM. In addition, the TGI in the experiment with BT-549 breast came to 3.65 µM; in the experiment on COLO 205 colon it was 1 µM; in the experiment on SR leukemia, 0.123 µM; with KM12 colon, 0.593 µM; with OVCAR-3 ovarian it was 0.553 µM.

On to `CCOC(=O)Cn1c(=O)c2cc(-c3ccccc3)cc3c(Cl)nc4c(OC)c(OC)cc1c4c32`, for which the TGI is 26.4 µM in the experiment on LOX IMVI melanoma; above 100 µM with NCI-H226 lung; 34.5 µM with HCC-2998 colon; 48.1 µM in the experiment with HT29 colon; 38.9 µM with UACC-257 melanoma; 30.7 µM with RXF 393 renal. Moreover, the TGI in the experiment with BT-549 breast is 38.3 µM; with COLO 205 colon it was above 100 µM; in the experiment with SR leukemia it was above 100 µM; in the experiment on KM12 colon it was above 92.8 µM; in the experiment on OVCAR-3 ovarian, 60.1 µM.

`CC(C)OC(=O)[C@@H](O)[C@H](CO)C1=CC([Si](C)(C)c2ccccc2)=CON1`: the TGI in the experiment with LOX IMVI melanoma, in the experiment with NCI-H226 lung, in the experiment with HCC-2998 colon, in the experiment with HT29 colon, in the experiment with UACC-257 melanoma and in the experiment with RXF 393 renal was above 100 µM each time. For the same compound, the TGI in the experiment with BT-549 breast, in the experiment with COLO 205 colon, in the experiment on SR leukemia, in the experiment on KM12 colon and with OVCAR-3 ovarian was above 100 µM throughout.

In the case of `CC(=O)O[C@H]1C[C@H]2C(=S)Nc3ccccc3C(=S)N2C1`, the TGI in the experiment on LOX IMVI melanoma, in the experiment on NCI-H226 lung, in the experiment with HCC-2998 colon, in the experiment on HT29 colon, with UACC-257 melanoma and in the experiment on RXF 393 renal was above 100 µM throughout. The concentration for total growth inhibition (TGI) in the experiment with BT-549 breast, in the experiment with COLO 205 colon, with SR leukemia, with KM12 colon and in the experiment with OVCAR-3 ovarian was above 100 µM each time.

For `Nc1ccc(Oc2ccc(C34CC5CC6C3CC3CC4C(C5)C6(c4ccc(Oc5ccc(N)c(O)c5)cc4)C3)cc2)cc1O`, the TGI with LOX IMVI melanoma is above 34.9 µM; in the experiment with NCI-H226 lung, 14.3 µM; in the experiment with HCC-2998 colon it was 7.57 µM; with HT29 colon it was above 34.7 µM; with UACC-257 melanoma, 34.7 µM; in the experiment on RXF 393 renal it was 27 µM. Moreover, the TGI in the experiment on BT-549 breast amounted to 20.9 µM; with COLO 205 colon, 2.85 µM; with SR leukemia it was 8.49 µM; in the experiment with KM12 colon, 47.8 µM; with OVCAR-3 ovarian, 8.28 µM.

In the case of `COc1ccccc1NC(=O)O/N=C(/Cl)C(C)C`, the TGI in the experiment with LOX IMVI melanoma was found to be 6.75 µM; in the experiment with NCI-H226 lung it was 41.5 µM; in the experiment on HCC-2998 colon it was 30.1 µM; with HT29 colon, 15.3 µM; in the experiment with UACC-257 melanoma, 26.8 µM; in the experiment with RXF 393 renal, 28.4 µM. Besides, the TGI is 21.6 µM in the experiment with BT-549 breast; 5.09 µM with COLO 205 colon; 4.73 µM with SR leukemia; 39.3 µM with KM12 colon; 16.3 µM in the experiment with OVCAR-3 ovarian.

With `Cc1ccc(C(=O)Nc2ccc(S(=O)(=O)O)c3cc(S(=O)(=O)O)cc(S(=O)(=O)O)c23)cc1NC(=O)c1cccc(NC(=O)Nc2cccc(C(=O)Nc3cc(C(=O)Nc4ccc(S(=O)(=O)O)c5cc(S(=O)(=O)O)cc(S(=O)(=O)O)c45)ccc3C)c2)c1` (tested in a mixture with another compound), the TGI with LOX IMVI melanoma, in the experiment with NCI-H226 lung, in the experiment with HCC-2998 colon, in the experiment on HT29 colon, in the experiment on UACC-257 melanoma and with RXF 393 renal was above 50 µM throughout. The total growth inhibition concentration (TGI) in the experiment with BT-549 breast, in the experiment on COLO 205 colon, with SR leukemia, with KM12 colon and in the experiment with OVCAR-3 ovarian was above 50 µM in each case.

Take `CCCCCCCCCCCCCCCCCCOCC(COP(=O)([O-])OCC[N+](C)(C)C)OC` (stereo unspecified): the TGI was found to be 45 µM in the experiment with LOX IMVI melanoma; 44.7 µM in the experiment with NCI-H226 lung; 9.93 µM in the experiment on HCC-2998 colon; 23.5 µM in the experiment on HT29 colon; 30.5 µM in the experiment with UACC-257 melanoma; 42.2 µM in the experiment on RXF 393 renal. Further, the TGI in the experiment with BT-549 breast was above 100 µM; in the experiment with COLO 205 colon, 21.2 µM; with SR leukemia, above 60.1 µM; in the experiment with KM12 colon, 10.4 µM; with OVCAR-3 ovarian, 54.5 µM.

For `C=C(C(=O)OC)c1cc2ccccc2n1S(=O)(=O)c1ccccc1`, the TGI was determined as 8.21 µM in the experiment with LOX IMVI melanoma; 7.22 µM with NCI-H226 lung; 8.35 µM in the experiment on HCC-2998 colon; 24.9 µM in the experiment with HT29 colon; 18.7 µM in the experiment with UACC-257 melanoma; 2.54 µM with RXF 393 renal. In addition, the TGI in the experiment on BT-549 breast is 5.12 µM; in the experiment on COLO 205 colon it was 3.82 µM; in the experiment on SR leukemia, above 100 µM; in the experiment on KM12 colon it was 5.99 µM; with OVCAR-3 ovarian, 11.4 µM.

Regarding `Oc1cccc(-c2cn3cc(C(F)(F)F)ccc3n2)c1`, the TGI was above 100 µM in the experiment with LOX IMVI melanoma; above 100 µM with NCI-H226 lung; 54 µM in the experiment on HCC-2998 colon; 60.8 µM in the experiment on HT29 colon; 65.3 µM in the experiment with UACC-257 melanoma; 50.2 µM with RXF 393 renal. Further, the TGI is above 100 µM in the experiment on BT-549 breast; above 100 µM in the experiment on COLO 205 colon; above 100 µM in the experiment with SR leukemia; above 100 µM with KM12 colon; 86.7 µM in the experiment with OVCAR-3 ovarian.

With `C(=C\c1cc(-c2ccc3ccccc3n2)nc2ccc3ccccc3c12)/c1ccc2ccccc2n1`, the TGI with LOX IMVI melanoma, with NCI-H226 lung, with HCC-2998 colon, in the experiment on HT29 colon, in the experiment on UACC-257 melanoma and in the experiment on RXF 393 renal was above 100 µM each time. The TGI in the experiment with BT-549 breast, in the experiment with COLO 205 colon, with SR leukemia, with KM12 colon and in the experiment on OVCAR-3 ovarian was above 100 µM in each case.
